ChEMBL document CHEMBL5137077, “Peptide-to-Small Molecule: A Pharmacophore-Guided Small Molecule Lead Generation Strategy from High-Affinity Macrocyclic Peptides” (J Med Chem, 2022)
Positions of bridges follow the written chain, without caps; N, C: chain ends. Non-standard residues stand in square brackets, D forms with d. Residues, ends and D or L forms follow the SMILES beside them. Phe(4-CONH2) = NC(=O)c1ccc(C[C@H](N)C(=O)O)cc1; NHexGly = CCCCCCNCC(=O)O; Sar = CNCC(=O)O

Legend:
[1] = molecular target: Indolethylamine N-methyltransferase (Homo sapiens, UniProt O95050); test: Inhibition of N-terminal 6His-tagged full length human recombinant INMT (1 to 263 residues) expressed in Escherichia coli BL21 (DE3) cells using S-(5'-Adenosyl)-L-methionine chloride dihydrochloride and 9H-pyrido[3,4-b]indole as substrate incubated for 2.5 hrs by MTase-Glo assay
HEK293 = test: Cytotoxicity against HEK293 cells assessed as reduction in ATP incubated for 10 mins by CellTiter-Glo luminescence assay; type: toxicity, cell-based; details: human, hek293, 10 min
[2] = molecular target: T1, Nicotinamide N-methyltransferase (Homo sapiens, UniProt P40261); test: Inhibition of N-terminal 6His-tagged full length human recombinant NNMT (1 to 264 residues) expressed in Escherichia coli BL21 (DE3) cells using S-adenosyl-L-methionine and NAM as substrate incubated for 2 hrs by RapidFire Mass Spectrometry
T1 sequence (P40261 whole entry): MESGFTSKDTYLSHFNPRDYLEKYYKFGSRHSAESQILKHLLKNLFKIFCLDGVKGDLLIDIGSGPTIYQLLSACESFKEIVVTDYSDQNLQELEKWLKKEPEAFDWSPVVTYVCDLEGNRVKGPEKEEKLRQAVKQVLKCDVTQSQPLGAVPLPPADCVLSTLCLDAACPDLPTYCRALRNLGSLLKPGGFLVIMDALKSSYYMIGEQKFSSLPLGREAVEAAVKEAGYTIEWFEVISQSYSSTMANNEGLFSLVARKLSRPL

[3] = molecular target: T1, Nicotinamide N-methyltransferase; test: Inhibition of N-terminal 6His-tagged full length human recombinant NNMT (1 to 264 residues) expressed in Escherichia coli BL21 (DE3) cells using S-adenosyl-L-methionine and NAM as substrate incubated for 22 to 24 hrs by RapidFire Mass Spectrometry
[4] = molecular target: T1, Nicotinamide N-methyltransferase; test: Inhibition of NNMT in HEK293 cells measured after 20 to 24 hrs by RapidFire Mass Spectrometry; type: cell-based

Chain of Indolethylamine N-methyltransferase (O95050 whole entry, the tested form may be a part): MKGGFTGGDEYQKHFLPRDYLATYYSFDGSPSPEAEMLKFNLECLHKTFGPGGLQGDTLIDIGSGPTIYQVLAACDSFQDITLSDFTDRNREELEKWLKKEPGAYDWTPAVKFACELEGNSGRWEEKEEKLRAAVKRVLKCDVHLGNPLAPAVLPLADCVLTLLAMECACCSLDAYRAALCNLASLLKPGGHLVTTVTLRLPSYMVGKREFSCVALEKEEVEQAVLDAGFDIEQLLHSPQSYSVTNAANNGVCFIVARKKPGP

| SMILES | IC50 [1] [µM] | IC50 [3] [µM] | further results |
| --- | --- | --- | --- |
| Cc1ccc2c(c1)cc([C@H]1C[C@H](n3ccnc3CN)CN1C(=O)c1cnc3[nH]ccc3c1)n2Cc1ccc(Cl)cc1 | > 100 |  |  |
| NCc1nccn1[C@H]1C[C@H](c2nc3ccccc3n2Cc2ccccc2)N(C(=O)c2cnc3[nH]ccc3c2)C1 | > 100 |  |  |
| Cc1ccc2c(c1)cc([C@H]1C[C@H](n3nc(C)cc3CN)CN1C(=O)c1cnc3[nH]c(C)cc3c1)n2Cc1ccc(Cl)cc1 | > 100 |  | CC20 (HEK293): > 10 µM |
| CCCCCCN(CC(=O)N[C@@H](Cc1c[nH]c2ccccc12)C(N)=O)C(=O)CNC(=O)[C@H](CCCNC(=N)N)NC(C)=O (Ac-RG[NHexGly]W-NH2) |  |  | IC50 [2]: > 30 µM |
| CCCCCCN1CC(=O)N[C@@H](Cc2c[nH]c3ccccc23)C(=O)N2CCC[C@H]2C(=O)N[C@H](C(N)=O)CSCC(=O)N[C@@H](Cc2ccccc2)C(=O)N[C@@H](Cc2ccc(C(N)=O)cc2)C(=O)N[C@@H](C)C(=O)NCC1=O ({CH2CO}-F[Phe(4-CONH2)]AG[NHexGly]WPC-NH2; thioether N-8) |  | > 100 |  |
| C[C@@H]1NC(=O)CNC(=O)[C@H](CCCNC(=N)N)NC(=O)[C@H](Cc2ccc(C(N)=O)cc2)NC(=O)[C@H](Cc2ccccc2)NC(=O)CSC[C@@H](C(N)=O)NC(=O)[C@@H]2CCCN2C(=O)[C@H](Cc2c[nH]c3ccccc23)NC1=O ({CH2CO}-F[Phe(4-CONH2)]RGAWPC-NH2; thioether N-8) |  | > 100 |  |
| CCCCCCN1CC(=O)N[C@@H](C)C(=O)N2CCC[C@H]2C(=O)N[C@H](C(N)=O)CSCC(=O)N[C@@H](Cc2ccccc2)C(=O)N[C@@H](Cc2ccc(C(N)=O)cc2)C(=O)N[C@@H](CCCNC(=N)N)C(=O)NCC1=O ({CH2CO}-F[Phe(4-CONH2)]RG[NHexGly]APC-NH2; thioether N-8) |  | > 100 |  |
| CCCCCCN1CC(=O)N[C@@H](Cc2c[nH]c3ccccc23)C(=O)N2CCC[C@H]2C(=O)N[C@H](C(=O)NCC(N)=O)CSCC(=O)N[C@@H](Cc2ccccc2)C(=O)N[C@@H](Cc2ccc(C(N)=O)cc2)C(=O)N[C@@H](CCCNC(=N)N)C(=O)NCC1=O ({CH2CO}-F[Phe(4-CONH2)]RG[NHexGly]WPCG-NH2; thioether N-8) | > 100 |  |  |
| CN1CC(=O)N[C@@H](Cc2c[nH]c3ccccc23)C(=O)N2CCC[C@H]2C(=O)N[C@H](C(N)=O)CSCC(=O)N[C@@H](Cc2ccccc2)C(=O)N[C@@H](Cc2ccc(C(N)=O)cc2)C(=O)N[C@@H](CCCNC(=N)N)C(=O)NCC1=O ({CH2CO}-F[Phe(4-CONH2)]RG[Sar]WPC-NH2; thioether N-8) |  | > 30 |  |
| Nc1ncnc2c1ncn2[C@@H]1O[C@H](C[C@@H](N)CC[C@H](N)C(=O)O)[C@@H](O)[C@H]1O [SINEFUNGIN] | 4 |  | IC50 [4]: > 100 µM; IC50 [2]: 5.2 µM |
